Columns and labels:
[1] = test system: naïve mice; test: Hot plate test, acute thermal pain in naïve mice; assay type: in vivo
Text: Mice were randomly assigned to each treatment group. To evaluate the pharmacological profile of SUM35 (N-hydroxy-6-(1-methyl-6-phenyl-4H-benzo[f][1,2,4]triazolo[4,3-a][1,4]diazepin-8-yl)hex-5-ynamide), SUM52 ((S)-N-hydroxy-7-(2-(1-methyl-6-phenyl-4H-benzo[f][1,2,4]triazolo[4,3-a][1,4]diazepin-4-yl)acetamido)heptanamide) (Fig. 1F), synthesized in the laboratory of Prof. Maria Novella Romanelli, iBET762 (molibresib; (4S)-6-(4-Chlorophenyl)-N-ethyl-8-methoxy-1-methyl-4H-[1,2,4]triazolo[4,3,a][1,4] benzodiazepine-4-acetamide, and SAHA (vorinostat; suberoylanilide hydroxamic acid) (Sigma-Aldrich, Italy) were administered 15 min before the tests. Drugs were dissolved in 5% DMSO. Drug concentrations were prepared in such a way that the necessary dose could be administered in a volume of 10 µl per mouse by intranasal (i.n.) administration. The experimental protocol to test the effect of treatments on behavioral and in vitro tests included 3 control groups: untreated, vehicle (5% DMSO), and saline. A representative figure of the experimental protocol in naïve (C) and SNI (F) mice has been inserted in Supplementary Fig. 1.
For i.n. administration, mice were slightly anesthetized by 2% isoflurane inhalation and placed in a supine position. A 5 μl aliquot of solution (treatments or vehicle) was slowly dropped alternatively to each nostril with a micropipette tip.
Animals were habituated to the testing environment daily for at least 2 days before baseline testing. To evaluate onset and progression of pain hypersensitivity, neuropathic mice were monitored by measuring nociceptive responses every 30 min for 3 h before surgery or 3, 7, 10, and 14 days after nerve surgery. Experiments were performed on post-surgery day 7 and 14 when the pain hypersensitivity was well established. Each mouse served as its own control, the responses being measured both before and after surgery. All testing was performed with a blind procedure.

[2] = test system: IL-1ß; test: Western blot of lumbar spinal cord, IL-1ß; assay type: in vivo, mice; conditions: SNI ipsilateral side, day 7 and 14
Experimental: (§1) The lumbar spinal cord was removed 7 and 14 days after surgery and 90 min after the intranasal administration of SUM52, corresponding to the peack of the effect. Samples (n = 4 for groups) were homogenized in a homogenization buffer and processed as previously described. Protein samples (40 µg of protein/sample) were separated on 10% SDS-PAGE and transferred onto nitrocellulose membranes (120 min at 100 V) using standard procedures. Membranes were blocked in PBST (PBS containing 0.1% Tween) containing 5% nonfat dry milk for 120 min. […] Blots were then extensively washed and developed using enhanced chemiluminescence detection system (Pierce, Milan, Italy) and signal intensity (pixels/mm^2) quantified (ImageJ, NIH). […] For each sample, the signal intensity was normalized to that of total protein stained by Ponceau S and the acquired images were quantified using Image Lab software. […]

[3] = test system: MAPK p38 (phosphorylated); test: Western blot of lumbar spinal cord, p-p38; assay type: in vivo, mice; conditions: SNI ipsilateral side, day 7 and 14
Experimental: as §1

[4] = test system: BRD4; test: Western blot of lumbar spinal cord, BRD4; assay type: in vivo, mice; conditions: SNI ipsilateral side, day 7 and 14 post-surgery, i.n.
Experimental: as §1

[5] = test system: SNI mice; test: Mechanical allodynia (Dynamic Plantar Aesthesiometer) in SNI mice; assay type: in vivo
Experimental: Mice were randomly assigned to each treatment group. […] Maria Novella Romanelli, iBET762 (molibresib; (4S)-6-(4-Chlorophenyl)-N-ethyl-8-methoxy-1-methyl-4H-[1,2,4]triazolo[4,3,a][1,4] benzodiazepine-4-acetamide, and SAHA (vorinostat; suberoylanilide hydroxamic acid) (Sigma-Aldrich, Italy) were administered 15 min before the tests. Drugs were dissolved in 5% DMSO. Drug concentrations were prepared in such a way that the necessary dose could be administered in a volume of 10 µl per mouse by intranasal (i.n.) administration. The experimental protocol to test the effect of treatments on behavioral and in vitro tests included 3 control groups: untreated, vehicle (5% DMSO), and saline.
(§2) For i.n. administration, mice were slightly anesthetized by 2% isoflurane inhalation and placed in a supine position [30]. A 5 μl aliquot of solution (treatments or vehicle) was slowly dropped alternatively to each nostril with a micropipette tip.
Behavioral testing was performed before surgery to establish a baseline for comparison with post-surgical values. Mono-neuropathy was induced by spared nerve injury and this model of pain in mice has been in use for several years [31]. The SNI procedure was performed as previously described [31].
Mechanical allodynia was measured by using Dynamic Plantar Aesthesiometer (Ugo Basile, Bologna, Italy), as described [32]. Nociceptive response for mechanical sensitivity was expressed as mechanical paw withdrawal threshold (PWT) in grams. PWT was quantified by an observer blinded to the treatment.

[6] = test system: SNI mice; test: Hargreaves' plantar test, thermal allodynia in SNI mice; assay type: in vivo
Experimental: as §2
Behavioral testing was performed before surgery to establish a baseline for comparison with post-surgical values.
Thermal nociceptive threshold was measured using Hargreaves’ device, as described [33]. Nociceptive response for thermal sensitivity was expressed as thermal paw withdrawal latency in seconds. All determinations were averaged for each animal.

[7] = test system: IBA1 (microglia marker); test: Immunofluorescence of lumbar spinal cord, IBA1; assay type: in vivo; conditions: lumbar spinal cord of SNI mice, day 14
Experimental: On postsurgical day 14, animals were perfused transcardially with 4% paraformaldehyde in 0.1 M phosphate buffer (PBS, pH 7.4). After perfusion, lumbar spinal cord was quickly removed and processed as previously described. Four animals per groups were used for this analysis. […] Primary antibody used was IBA1 (1:100; Santa Cruz Biotechnology Cat# sc-32725, RRID:AB_667733). After rinsing in PBS containing 0.01% Triton-X-100, sections were incubated in secondary antibodies labeled with Invitrogen Alexa Fluor 488 (490–525, 1:400; Thermo Fisher Scientific), Invitrogen Alexa Fluor 568 (578–603, 1:400; Thermo Fisher Scientific), Cruz Fluor 594 (592–614, 1:400; Santa Cruz Biotechnology) at room temperature for 2 h. Sections were coverslipped using Vectorshield mounting medium (Vector Laboratories, Burlingame, CA). A Leica DM6000B fluorescence microscope equipped with a DFC350FX digital camera with appropriate excitation and emission filters for each fluorophore was used to acquire representative images. Images were acquired with × 5 to × 40 objectives using a digital camera. The immunofluorescence intensity was calculated by ImageJ (Wayne Rasband, National Institute of Health, USA).

[8] = contralateral (uninjured) side of SNI mice
[9] = time-course comparison, combination i-BET762 10 µg, SAHA 3 µg

SMILES: Cc1nnc2n1-c1ccccc1C(c1ccccc1)=N[C@H]2CC(=O)NCCCCCCC(=O)NO [SUM52, (S)-N-hydroxy-7-(2-(1-methyl-6-phenyl-4H-benzo[f][1,2,4]triazolo[4,3-a][1,4]diazepin-4-yl)acetamido)heptanamide]
- thermal antinociceptive effect (hot plate) ([1]; 5 µM i.n., 90 min after administration): ineffective
- thermal antinociceptive effect (hot plate) ([1]; 50 µM i.n., 90 min after administration): trend toward an increase in the pain threshold
- time at which the antinociceptive effect disappeared (hot plate) ([1]; 100 µM i.n.): 120 min
- time of peak of antinociceptive activity (hot plate) ([1]; 100 µM i.n.): 90 min
- thermal antinociceptive effect (hot plate) ([1]; 100 µM i.n., normalized to control, compared to SUM35 100 µM): significant analgesic effect
- thermal antinociceptive effect (hot plate), whole dose range ([1]; 5 to 500 µM i.n.): showed thermal antinociceptive effects
- thermal antinociceptive effect (hot plate) ([1]; doses higher than 100 µM (up to 500 µM) i.n.): progressive reduction of efficacy
- IL-1ß expression [2]: drastically reduced
- phosphorylation of MAPK p38 [3]: drastically reduced
- spinal BRD4 protein expression [4]: restored both epigenetic enzyme levels to control values
- mechanical antiallodynic activity, ipsilateral side ([5]; 10–100 µM i.n.): attenuated SNI-induced mechanical allodynia
- duration of activity in attenuating mechanical allodynia compared with SUM35 ([5]; SUM52 50 µM vs SUM35 100 µM): more prolonged activity
- efficacy in attenuating mechanical allodynia compared with SUM35 ([5]; SUM52 50 µM vs SUM35 100 µM, day 7 and 14 post-surgery): higher efficacy
- mechanical analgesic effect in the contralateral side [5, 8]: absence
- mechanical antiallodynic efficacy compared with SAHA + iBET762 combination [5, 9]: comparable efficacy
- thermal antiallodynic activity, ipsilateral side ([6]; 10 µM i.n., 90 min): ineffective
- thermal antiallodynic activity, ipsilateral side ([6]; 50 µM i.n., vs before treatment values): attenuated the SNI-induced pain hypersensitivity
- thermal antiallodynic activity, ipsilateral side ([6]; 75 µM i.n., vs before treatment values): attenuated the SNI-induced pain hypersensitivity
- thermal antiallodynic activity, ipsilateral side ([6]; 100 µM i.n.): the effect was significantly reduced
- duration of effect on thermal allodynia compared with SUM35 ([6]; SUM52 50 µM vs SUM35 100 µM): more prolonged affect
- efficacy in attenuating thermal allodynia compared with SUM35 ([6]; SUM52 50 µM vs SUM35 100 µM, normalized to control group, day 7 and 14): comparable efficacy
- thermal analgesic effect in the contralateral side [6, 8]: absence
- thermal antiallodynic efficacy compared with SAHA + iBET762 combination [6, 9]: comparable efficacy
- IBA1 immunostaining [7]: significantly reduced

— paper PMC9606187, “Dual HDAC/BRD4 Inhibitors Relieves Neuropathic Pain by Attenuating Inflammatory Response in Microglia After Spared Nerve Injury” (Neurotherapeutics, 2022)
